Results as given in patent publication US20150174144A1, “TETRACYCLINE COMPOUNDS FOR TREATING NEURODEGENERATIVE DISORDERS” (PARATEK PHARMACEUTICALS, INC., priority 2012, published 2015).
Where “and” joins values, the source holds several entries; their conditions need not be identical. Identical values can stand only once. Like-named read-outs stand apart in the source and are kept apart here.

Assays:
[1] = tested on: animal models of MS and neuroprotection; test: Accepted animal models of MS and neuroprotection (Table 2); set-up: concentration or dose not given beside the values; conditions: in vivo
[2] = tested on: cerebellar granule neurons; test: Glutamate-induced neurodegeneration in cerebellar granule neurons (MTT); type: cell-based, C57BL/6 mouse; conditions: Mus musculus, Neuron
Source text: The method for isolation of cerebellar granule neurons has been previously described in published studies. Neonate C57BL/6 mouse pups, 7-8 days old, are obtained. Heads are removed and rinsed in 70% alcohol and transfered to an 85 mm dish filled with PBS on ice. Heads are cut, the brains removed, and the cerebella dissected and placed in a 50 mm dish with PBS on ice. The meninges, choroids plexus and blood vessels are removed from the cerebellum and the cleaned organ is transferred to a 35 mm dish with Hank's buffered salt solution (HBSS) containing Ca^2+ and Mg^2+. Each cerebellum is cut into pieces and incubated with trypsin solution at 37° C. for 10 minutes, after which 0.5 mg/ml (final concentration) trypsin inhibitor and 0.1 mg/ml (final concentration) DNAse are added. After centrifugation, cerebellar fragments are resuspended in dissociation medium (HBSS with Ca^2+, Mg^2+, trypsin inhibitor, DNAse) and a single cell suspension generated by agitation with a Pasteur pipette. After the coarse debris settles, the supernatant (cell suspension) is passed through a cell strainer (40 μm, Becton Dickinson #1942501) into a 50 ml sterile tube and the cells centrifuged. Cells are washed and re-suspended in culture medium (BME Basal Medium containing 10% fetal bovine serum, 100 IU/ml penicillin/streptomycin, 10 mM HEPES, 25 mM KCl, 2 mM L-glutamine).
The cell suspension is transferred to poly-D-lysine-coated dishes and incubated for 25 min at 37° C. in 5% CO2. After incubation, the non-adherent cells are removed and counted with a hemocytometer. A suspension of 0.9×10^6 cells/ml is prepared in culture medium, and 100 μL volumes are added per well (250,000 cells/cm^2) in poly-D-Lysine coated 96-well plates. One day after plating, cytosine arabinoside (AraC) is added to a final concentration of 10 μM. After 6-8 days of in vitro culture, the neurons are ready to be used in the assay.
To test the activity of Compound 1 and minocycline, compounds were added to the neuron cultures at varying concentrations. Buffer was added to some cells as a negative control. After pre-incubation with compound for 30 minutes at 5% CO2, 37° C., glutamate was added at a final concentration of […] and the cells further incubated for 1 hour. Glutamate was not added to some cells as a positive control for cell survival. After the 1 hr period, cells were washed once with culture medium and 100 μL of fresh medium were added per well. Compounds were re-added to the cells and the cultures were incubated overnight at 5% CO2, 37° C. […] Spectrophotometric absorbance at wavelength 570 nm was measured using a microplate reader.
The MTT absorbance for non-stimulated cells was considered the 100% survival level.

[3] = target: T1, recombinant human matrix metalloproteinase-9 (MMP-9) (Homo sapiens, UniProt P14780); test: MMP-9 enzyme activity assay (cell-free); type: biochemical
T1 construct: an aliquot of active recombinant human matrix metalloproteinase-9 (MMP-9)(CalBioChem) was added; purchased CalBioChem
T1 sequence (P14780 107-707 limits assumed): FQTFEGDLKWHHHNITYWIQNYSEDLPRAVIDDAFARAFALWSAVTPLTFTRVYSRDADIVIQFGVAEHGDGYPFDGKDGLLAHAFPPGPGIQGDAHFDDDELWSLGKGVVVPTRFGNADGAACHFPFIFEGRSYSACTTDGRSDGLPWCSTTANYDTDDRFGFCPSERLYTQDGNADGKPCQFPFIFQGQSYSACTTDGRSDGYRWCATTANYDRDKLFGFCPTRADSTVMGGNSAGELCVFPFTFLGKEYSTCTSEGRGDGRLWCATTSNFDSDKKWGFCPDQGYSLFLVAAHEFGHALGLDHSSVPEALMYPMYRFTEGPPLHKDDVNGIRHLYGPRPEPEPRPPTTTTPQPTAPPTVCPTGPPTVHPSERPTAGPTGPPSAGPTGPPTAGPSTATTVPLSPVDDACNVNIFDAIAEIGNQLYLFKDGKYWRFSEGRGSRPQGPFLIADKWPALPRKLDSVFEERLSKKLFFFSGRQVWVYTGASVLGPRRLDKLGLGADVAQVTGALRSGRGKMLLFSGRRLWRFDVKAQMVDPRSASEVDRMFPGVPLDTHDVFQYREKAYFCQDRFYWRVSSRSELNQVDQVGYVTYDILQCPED
Description: Compound 1 was tested to determine specific anti-inflammatory characteristics. In vitro assays to assess the inhibition of substrate cleavage by matrix metalloproteinase 9 (MMP-9) and the inhibition of TNFα production by lipopolysaccharide (LPS)-activated macrophages were performed. MMP-9 activity was determined by fluorescence after incubation of recombinant MMP-9 with fluorescein-conjugated DQ gelatin for 90 min. TNFα production was determined by incubation of 10 ng/ml LPS with RAW264.7 macrophage cells for 24 h, followed by quantitation of TNFα in culture supernatant by ELISA.
This assay was designed to measure the degradation of substrate by purified enzyme. To a solution containing 2.5 μg/ml fluorescein-conjugated DQ gelatin (Invitrogen) in buffer (50 mM Tris-HCl, 150 mM NaCl, 5 mM CaCl2, 0.2 mM sodium azide, pH 7.6), tetracycline compounds were added at final concentrations ranging from 100 to 1 μM. Subsequently, an aliquot of active recombinant human matrix metalloproteinase-9 (MMP-9)(CalBioChem) was added to a final concentration of 0.05 μg/ml. The total volume of the reaction mixture was 200 μL and samples were contained in 96-well black plates (Corning). The mixture was incubated at room temperature in the dark for 85 min, after which the fluorescence was measured using a microplate reader. Samples containing no MMP-9 enzyme were used as negative controls and samples with enzyme and without compound were positive controls.

[4] = Bioavailability in the CNS of the mouse; conditions: for concentration at 0.5 hr / concentration at 1 hr / concentration at 2 hr / concentration at 4 hr / Kp at 0.5 hr / Kp at 1 hr / Kp at 2 hr / Kp at 4 hr: ip, 10 mg/kg
Description: Compounds were administered via the indicated routes and blood samples were removed at various times up to 24 hr. Concentration of compound was determined by LC/MS.

MS = MS clinical studies, cited from earlier work
GLP phototoxicity assay = test: GLP phototoxicity assay
Description: The compound was also shown to be negative in a GLP phototoxicity assay. […] Both 14-day acute toxicity and 28-day toxicology study were performed in rats with Compound 1 along with minocycline for comparison. Animals were administered daily oral doses from 15 to 150 mg/kg for up to 4 weeks followed by a recovery period.

[5] = Table 4, unit inferred, read-out: Neuroprotection (mouse CGN)
[6] = concentration at which 50% of the maximum response is observed, read-out: EC50, survival of glutamate-stimulated cerebellar granule neurons
[7] = Table 4, unit inferred, read-out: MMP-9 activity (cell-free)
[8] = Table 11, read-out: MMP-9 Activity (cell-free) IC50

Compound	% Inhibition Axon Loss [1] [%]	% Inhibition Clinical Score [1] [%]	% Inhibition Demyelination [1] [%]	% Inhibition Inflammation [1] [%]	EC50 [2, 5] [µM]	EC50 [2, 6] [µM]	IC50 [3, 7] [µM]	IC50 [3, 8] [µM]	AUC ([4]; monkey, iv, 5 mg/kg) [µM·h]	Cmax ([4]; monkey, iv, 5 mg/kg) [µM]	half-life ([4]; monkey, iv, 5 mg/kg) [h]	AUC ([4]; monkey, po, 5 mg/kg) [µM·h]	Cmax ([4]; monkey, po, 5 mg/kg) [µM]	Tmax ([4]; monkey, po, 5 mg/kg) [h]	bioavailability ([4]; monkey, po, 5 mg/kg) [%]	AUC ([4]; rat, po, 5 mg/kg) [µM·h]	Cmax ([4]; rat, po, 5 mg/kg) [µM]	Tmax ([4]; rat, po, 5 mg/kg) [h]	bioavailability ([4]; rat, po, 5 mg/kg) [%]	other results
CN(C)c1ccc(O)c2c1C[C@H]1C[C@H]3[C@H](N(C)C)C(O)=C(C(N)=O)C(=O)[C@@]3(O)C(O)=C1C2=O [Minocycline, minocycline, reference compound]	38	40	34	43	1.4 ± 0.1	1.4	43.2	43.2	55.8	29.9	10.4	44.6	4.4	3	80.1	3.6	0.4	1.7	30.7	concentration at 0.5 hr ([4]; brain): 138 ng/g; concentration at 1 hr ([4]; brain): 380 ng/g; concentration at 2 hr ([4]; brain): 317 ng/g; concentration at 4 hr ([4]; brain): 327 ng/g; Kp at 0.5 hr ([4]; brain/plasma): 0.095; Kp at 1 hr ([4]; brain/plasma): 0.253; Kp at 2 hr ([4]; brain/plasma): 0.508; Kp at 4 hr ([4]; brain/plasma): 0.688; concentration at 0.5 hr ([4]; plasma): 1450 ng/mL; concentration at 1 hr ([4]; plasma): 1500 ng/mL; concentration at 2 hr ([4]; plasma): 623 ng/mL; concentration at 4 hr ([4]; plasma): 475 ng/mL; AUC ([4]; rat, iv, 1 mg/kg): 2.4 µM·h; Cmax ([4]; rat, iv, 1 mg/kg): 0.93 µM; half-life ([4]; rat, iv, 1 mg/kg): 3.6 h; potential side effects (MS): Mild Nausea; potential side effects (MS; listed as minocycline): Mild nausea
CCc1cc(N(C)C)c2c(c1O)C(=O)C1=C(O)[C@]3(O)C(=O)C(C(N)=O)=C(O)[C@@H](N(C)C)[C@@H]3C[C@@H]1C2 [Compound 1]	70	65	69	74	2.6 ± 0.9	2.6	29	32.7	70	28.5	5.7	46.7	8.6	3	66.9	14.3	1.25	2	26	Kp at 0.5 hr ([4]; mouse, in vivo): 0.179; Kp at 1 hr ([4]; mouse, in vivo): 0.284; Kp at 2 hr ([4]; mouse, in vivo): 0.568; Kp at 4 hr ([4]; mouse, in vivo): 1.17; concentration at 0.5 hr ([4]; mouse, in vivo): 6860 ng/mL and 1230 ng/g; concentration at 1 hr ([4]; mouse, in vivo): 6360 ng/mL and 1810 ng/g; concentration at 2 hr ([4]; mouse, in vivo): 7020 ng/mL and 3990 ng/g; concentration at 4 hr ([4]; mouse, in vivo): 3680 ng/mL and 4310 ng/g; half-life ([4]; rat): 3.5 h; AUC ([4]; rat, iv, 5 mg/kg): 54.4 µM·h; Cmax ([4]; rat, iv, 5 mg/kg): 27.9 µM; GLP phototoxicity assay result (GLP phototoxicity assay): negative
